Laboratory results published in ChEMBL document CHEMBL3045439, “Isoforms of the heteropteran Nezara viridula ecdysone receptor: protein characterisation, RH5992 insecticide binding and homology modelling” (Pest Manag Sci, 2011).

Columns and labels:
Assay type in all cases: protein-complex assay
[1] = target: T1, Ecdysone receptor (Leptinotarsa decemlineata, UniProt Q4W6C8+Q4W6D0); assay: Binding affinity to Leptinotarsa decemlineata EcR
T1 sequence (Q4W6D0 whole entry): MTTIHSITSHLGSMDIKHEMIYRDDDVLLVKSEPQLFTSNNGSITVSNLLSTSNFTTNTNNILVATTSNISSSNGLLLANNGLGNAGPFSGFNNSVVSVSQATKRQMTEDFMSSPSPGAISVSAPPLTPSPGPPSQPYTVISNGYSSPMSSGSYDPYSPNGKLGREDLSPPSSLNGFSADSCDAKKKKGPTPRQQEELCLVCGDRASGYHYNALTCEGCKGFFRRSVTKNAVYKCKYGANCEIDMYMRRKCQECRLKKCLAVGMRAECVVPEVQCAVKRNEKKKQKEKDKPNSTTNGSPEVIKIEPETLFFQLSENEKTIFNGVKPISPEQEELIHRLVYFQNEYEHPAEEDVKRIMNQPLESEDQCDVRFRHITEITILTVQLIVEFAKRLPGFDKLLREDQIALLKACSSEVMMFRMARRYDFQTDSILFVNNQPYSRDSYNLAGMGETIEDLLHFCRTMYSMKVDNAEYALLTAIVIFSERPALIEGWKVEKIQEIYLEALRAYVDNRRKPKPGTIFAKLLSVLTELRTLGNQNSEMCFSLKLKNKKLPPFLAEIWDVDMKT
T1 sequence (Q4W6C8 whole entry): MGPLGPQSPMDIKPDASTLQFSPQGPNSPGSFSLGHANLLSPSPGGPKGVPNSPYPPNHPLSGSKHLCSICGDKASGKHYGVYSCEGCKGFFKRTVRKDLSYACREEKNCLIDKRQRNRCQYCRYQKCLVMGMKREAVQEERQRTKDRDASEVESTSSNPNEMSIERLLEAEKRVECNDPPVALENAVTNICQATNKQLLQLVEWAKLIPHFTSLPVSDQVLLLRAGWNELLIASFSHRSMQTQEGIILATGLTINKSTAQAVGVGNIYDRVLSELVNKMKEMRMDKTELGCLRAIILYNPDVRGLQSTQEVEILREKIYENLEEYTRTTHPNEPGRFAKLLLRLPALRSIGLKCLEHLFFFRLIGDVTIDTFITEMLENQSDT

[2] = target: T2, Ecdysone receptor (Nezara viridula, UniProt E5L6Y0+E5L6Y1); assay: Displacement of [3H]PonA from recombinant Nezara viridula EcR10
T2 sequence (E5L6Y1 whole entry): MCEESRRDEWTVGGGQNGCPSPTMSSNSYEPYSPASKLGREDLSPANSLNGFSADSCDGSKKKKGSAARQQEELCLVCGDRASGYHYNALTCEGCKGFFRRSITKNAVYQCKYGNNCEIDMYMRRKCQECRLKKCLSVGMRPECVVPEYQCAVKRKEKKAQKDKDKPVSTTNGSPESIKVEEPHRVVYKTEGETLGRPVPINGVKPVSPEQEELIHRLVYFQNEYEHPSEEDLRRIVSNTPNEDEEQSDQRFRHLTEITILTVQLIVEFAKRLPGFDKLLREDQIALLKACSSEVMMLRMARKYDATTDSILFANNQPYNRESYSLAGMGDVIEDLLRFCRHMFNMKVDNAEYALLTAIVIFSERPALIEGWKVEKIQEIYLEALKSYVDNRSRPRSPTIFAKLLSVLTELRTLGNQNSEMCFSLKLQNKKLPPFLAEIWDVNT
T2 sequence (E5L6Y0 whole entry): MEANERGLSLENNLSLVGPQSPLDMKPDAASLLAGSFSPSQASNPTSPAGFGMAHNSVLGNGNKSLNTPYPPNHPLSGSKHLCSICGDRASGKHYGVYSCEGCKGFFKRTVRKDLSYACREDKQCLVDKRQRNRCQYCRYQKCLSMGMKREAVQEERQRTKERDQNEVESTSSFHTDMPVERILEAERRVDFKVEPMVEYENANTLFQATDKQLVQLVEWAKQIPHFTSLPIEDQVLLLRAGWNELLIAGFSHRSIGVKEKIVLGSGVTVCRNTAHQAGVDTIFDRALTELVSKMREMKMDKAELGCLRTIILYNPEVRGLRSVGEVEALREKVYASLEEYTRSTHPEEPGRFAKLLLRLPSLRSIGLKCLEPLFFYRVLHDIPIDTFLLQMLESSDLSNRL

[3] = target: T2, Ecdysone receptor; assay: Binding affinity to Nezara viridula EcR
[4] = target: T2, Ecdysone receptor; assay: Displacement of [3H]PonA from recombinant Nezara viridula EcR11

| Structure (SMILES) | IC50 [1] [µM] | IC50 [2] [µM] | Ki [2] [µM] | IC50 [3] [µM] | IC50 [4] [µM] | Ki [4] [µM] | Ki [1] [µM] | Ki [3] [µM] |
| --- | --- | --- | --- | --- | --- | --- | --- | --- |
| CC(C)(O)CC[C@@H](O)[C@](C)(O)[C@H]1CC[C@@]2(O)C3=CC(=O)[C@@H]4C[C@@H](O)[C@@H](O)C[C@]4(C)[C@H]3CC[C@]12C [20-HYDROXYECDYSONE] | 0.437 | 3 | 2.5 | 1.05 | 4.5 | 3 | – | – |
| CCc1ccc(C(=O)NN(C(=O)c2cc(C)cc(C)c2)C(C)(C)C)cc1 [TEBUFENOZIDE] | – | 20 | 16.8 | – | 28 | 23.9 | 2.51 | 25.1 |
